Inhibition data for two compounds are collected here from patent US8106055B2, “Substituted amide compounds” (Gruenenthal GmbH, priority 2007, dated 2012).

The assay concerns the target T1, bradykinin 1 receptor (B1R) of the rat (Rattus norvegicus, UniProt P97583).
T1 construct: expressed in transfected cells; host or cells: CHO K1 cells
T1 sequence (P97583 1-337): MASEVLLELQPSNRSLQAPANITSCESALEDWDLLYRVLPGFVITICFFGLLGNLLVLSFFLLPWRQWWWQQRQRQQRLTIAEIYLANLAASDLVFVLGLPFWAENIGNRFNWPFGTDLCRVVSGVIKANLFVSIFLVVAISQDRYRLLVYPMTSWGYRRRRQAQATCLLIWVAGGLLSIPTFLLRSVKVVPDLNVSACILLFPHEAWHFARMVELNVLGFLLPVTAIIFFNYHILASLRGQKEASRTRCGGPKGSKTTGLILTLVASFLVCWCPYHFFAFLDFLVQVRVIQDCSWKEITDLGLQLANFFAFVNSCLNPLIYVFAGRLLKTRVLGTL
The assay is described as follows: Functional investigation on the rat bradykinin 1 receptor (B1R), Ca2+ FLIPR assay in CHO K1 rB1R cells. Particulars: CHO-K1, B1R antagonism rat; test substance 10 μM; Ca2+ FLIPR, CHO K1 rB1R cells; read-out: B1R Ant. r [10 μM] % Inhibition. Format: cell-based. The method in brief: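 Cells were dye-loaded with Fluo-4 plus probenecid, then test substances added and Ca2+ influx compared with agonist control for % activation. After 10-20 min, EC80 agonist (Lys-Des-Arg9-bradykinin human; Des-Arg9-bradykinin rat) was applied; suppression gave % inhibition and IC50 values.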

The inhibition is the relative decrease from the control value, in per cent. For `Cc1cc(C)c(S(=O)(=O)N2CCC(OCC(=O)NCC3CCC(C(c4cccs4)N(C)C)CC3)C2)c(C)c1` (centres unmarked) [Example 27, N-((4-((dimethylamino)(thiophen-2-yl)methyl)cyclohexyl)methyl)-2-(1-(mesitylsulfonyl)pyrrolidin-3-yloxy)acetamide], the inhibition at 10 µM was 60%. For `COc1cc(C)c(S(=O)(=O)N2CCC(CCOCC(=O)NCC3CCC(C(c4ccccc4)N(C)C)CC3)CC2)c(C)c1C` (centres unmarked) [Example 146, N-((4-((dimethylamino)(phenyl)methyl)cyclohexyl)methyl)-2-(2-(1-(4-methoxy-2,3,6-trimethylphenylsulfonyl)piperidin-4-yl)ethoxy)acetamide] the value was 26%.
